For 15 molecules, IC50 results are on record in US12466831B2, “Substituted amino triazolopyrimidine and amino triazolopyrazine adenosine receptor antagonists, pharmaceutical compositions and their use” (Merck Sharp & Dohme LLC, priority 2018, dated 2025).

Assay [1] deals with T1, human A2a adenosine receptor (Homo sapiens, UniProt P29274).
T1 construct: purchased Perkin Elmer RBHA2aM400UA; host or cells: HEK293 or CHO cells (recombinant expression)
Kind of assay: A2a binding affinity using radioligand binding, Method (A). The following applies: Method (A): [3H]SCH58261 filtration binding, membranes expressing human A2a. An excerpt: (§1) Method (A) describes the procedure used to measure A2a binding affinity using radioligand binding. Method (B) describes the procedure used to measure A2a binding affinity using SPA technology. The method used to measure A2b binding affinity is also described below. The method used to determine the A2a IC50 value reported for each compound in the table is indicated next to the reported value. The A2b IC50 value measured using the A2b binding affinity assay is shown in the table next to the compound under the corresponding A2a value.
The A2a receptor affinity binding assay measured the amount of binding of a tritiated ligand with high affinity for the A2a adenosine receptor to membranes made from HEK293 or CHO cells recombinantly expressing the human A2a adenosine receptor, in the presence of varying concentrations of a compound of the invention. The data were generated using either filtration binding or a homogenous scintillation proximity assay (SPA).
Method (A): Measurement of A2a Binding Affinity Using Radioligand Binding
148 μL (5 μg/mL) membranes (Perkin Elmer, Cat. No. RBHA2aM400UA) and 2 μL compounds of the invention to be tested (test compound) were transferred to individual wells of a 96-well polypropylene assay plate and incubated for 15 to 30 minutes at room temperature. [^3H] SCH58261 ((7-(2-phenylethyl)-5-amino-2-(2-furyl)-pyrazolo-[4,3-e]-1,2,4-triazolo[1,5-c]pyrimidine)) was diluted in assay buffer (50 mM Tris pH 7.4, 10 mM MgCl2, 0.005% Tween20) to a concentration of 4 nM and 50 μL transferred to each well of the assay plate. To define total and non-specific binding, wells containing 1% DMSO and 1 μM ZM241385 (Tocris Bioscience, Cat. No. 1036) respectively, were also included. The assay plate was incubated at room temperature for 60 minutes with agitation. Using a FilterMate Harvester® (Perkin Elmer), the contents of the assay plate were filtered through a UniFilter-96® PEI coated plate (Perkin Elmer Cat. No. 6005274 or 6005277). Filtering was achieved by aspirating the contents of the assay plate for 5 seconds, then washing and aspirating the contents three times with ice-cooled wash buffer (50 mM Tris-HCl pH 7.4, 150 mM NaCl) and allowing the vacuum manifold to dry the plate for 30 seconds. The filter plate was incubated for at least 1 hour at 55° C. and allowed to dry. The bottom of the filter plate was sealed with backing tape. 40 μL Ultima Gold™ (Perkin Elmer, Cat. No. 6013329) was added to each well of the filter plate and the top of the plate was sealed with TopSeal-A PLUS® clear plate seal (Perkin Elmer, Cat. No. 6050185). The plate was incubated for at least 20 minutes, and then the amount of radioactivity remaining in each well was determined using a TopCount® (Perkin Elmer) scintillation counter. After normalization to total and non-specific binding, the percent effect at each compound concentration was calculated. The plot of percent effect versus the log of compound concentration was analyzed electronically using a 4-parameter logistic fit based on the Levenberg-Marquardt algorithm to generate IC50 values.

Assay [2] deals with T2, human A2b adenosine receptor (Homo sapiens, UniProt P29275).
T2 construct: purchased Perkin Elmer ES-013-C; host or cells: HEK293 cells recombinantly expressing the receptor; membranes made from them
T2 sequence (P29275 1-332): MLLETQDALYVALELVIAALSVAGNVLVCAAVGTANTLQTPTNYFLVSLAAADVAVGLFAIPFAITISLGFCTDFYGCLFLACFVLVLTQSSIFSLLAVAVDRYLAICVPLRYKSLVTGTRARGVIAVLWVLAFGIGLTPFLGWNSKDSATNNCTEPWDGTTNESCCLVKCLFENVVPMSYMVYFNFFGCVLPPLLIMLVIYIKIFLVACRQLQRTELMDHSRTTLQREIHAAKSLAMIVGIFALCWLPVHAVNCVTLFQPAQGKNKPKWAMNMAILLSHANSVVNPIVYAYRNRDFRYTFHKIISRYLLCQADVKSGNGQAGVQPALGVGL
The assay can be described thus: A2b binding affinity, radioligand filtration binding assay. As to conditions: tritiated proprietary A2b antagonist, HEK293 membranes expressing human A2b.
From the text: as §1
Measurement of A2b Binding Affinity
The reported affinity of the compounds of the invention for the human A2b adenosine receptor was determined experimentally using a radioligand filtration binding assay. This assay measures the amount of binding of a tritiated proprietary A2b receptor antagonist, in the presence and absence of a compound of the invention, to membranes made from HEK293 cells recombinantly expressing the human A2b adenosine receptor (Perkin Elmer, Cat. No. ES-013-C).
148 μL (135 μg/mL) membranes and 2 μL test compounds were transferred to individual wells of a 96-well polypropylene assay plate and incubated for 15 to 30 minutes at room temperature with agitation. Tritiated radioligand was diluted to a concentration of 14 nM in assay buffer (phosphate buffered saline without Magnesium and Calcium, pH 7.4; GE Healthcare Life Sciences, Cat. No. SH30256.01) and then 50 μL of the solution were transferred to each well of the assay plate. To define total and non-specific binding, wells containing 1% DMSO and 20 μM N-ethylcarboxamidoadenosine (Tocris Bioscience, Cat. No. 1691) respectively, were also included. The wells of the assay plate were incubated at room temperature for 60 minutes with agitation, then filtered using a FilterMate Harvester® (Perkin Elmer) or similar equipment through a UniFilter-96® PEI coated plate (Perkin Elmer Cat. No. 6005274 or 6005277). Filtering was achieved by aspirating the contents of the assay plate for 5 seconds, then washing and aspirating the contents three times with ice-cooled wash buffer (assay buffer supplemented with 0.0025% Brij58) and allowing the vacuum manifold to dry the plate for 30 seconds. The filter plate was incubated for at least 1 hour at 55° C. and allowed to dry. The bottom of the filter plate was then sealed with backing tape. 40 μL Ultima Gold™ (Perkin Elmer, Cat. No. 6013329) was added to each well of the filter plate and the top of the plate was sealed with TopSeal-A PLUS® clear plate seal (Perkin Elmer, Cat. No. 6050185). The plates were then incubated for at least 20 minutes, and then the amount of radioactivity remaining in each well was determined using a TopCount® (Perkin Elmer) scintillation counter. After normalization to total and non-specific binding, the percent effect at each compound concentration was calculated. The plot of percent effect versus the log of compound concentration was analyzed electronically using a 4-parameter logistic fit based on the Levenberg-Marquardt algorithm to generate IC50 values.

T1 sequence (P29274 whole entry): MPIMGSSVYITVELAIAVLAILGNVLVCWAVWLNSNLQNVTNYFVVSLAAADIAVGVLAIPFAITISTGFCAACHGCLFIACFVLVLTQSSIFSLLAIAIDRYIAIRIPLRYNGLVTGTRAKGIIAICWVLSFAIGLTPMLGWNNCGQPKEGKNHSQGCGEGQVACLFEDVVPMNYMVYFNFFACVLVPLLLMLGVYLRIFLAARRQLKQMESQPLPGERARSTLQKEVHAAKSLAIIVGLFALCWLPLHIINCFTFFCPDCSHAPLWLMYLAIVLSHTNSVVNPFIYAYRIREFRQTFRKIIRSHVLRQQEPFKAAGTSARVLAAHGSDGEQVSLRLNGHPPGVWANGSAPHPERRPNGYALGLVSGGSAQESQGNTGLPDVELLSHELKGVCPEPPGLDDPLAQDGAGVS

A word on the IC50: it is the concentration that gives 50% inhibition. As to `Cc1c(-c2ncco2)nc(N)n2nc(C3CCN(c4cnn(CC(C)(C)O)c4)C3)nc12` (single isomer, unassigned) [Example 3.15-2, (R or S)-1-(4-(3-(5-amino-8-methyl-7-(oxazol-2-yl)-[1,2,4]triazolo[1,5-c]pyrimidin-2-yl)pyrrolidin-1-yl)-1H-pyrazol-1-yl)-2-methylpropan-2-ol], the figures for the IC50 in assay [1] and in assay [2] were 435 nM and 9090 nM, respectively.

`Cc1cc(N2CCC[C@@H](c3nc4c(C)c(-c5ncco5)nc(N)n4n3)C2)cnc1OC(F)F` [Example 3.13, (R)-2-(1-(6-(difluoromethoxy)-5-methylpyridin-3-yl)piperidin-3-yl)-8-methyl-7-(oxazol-2-yl)-[1,2,4]triazolo[1,5-c]pyrimidin-5-amine]: the values for the IC50 in assay [1] and in assay [2] were 1.6 nM and 149 nM, respectively.

With `Cc1c(-c2ncco2)nc(N)n2nc(C3CCCC(C)(O)C3)nc12` (single isomer, unassigned) [Example 8.2-2, (1-R or S,3-R or S)-3-(5-amino-8-methyl-7-(oxazol-2-yl)-[1,2,4]triazolo[1,5-c]pyrimidin-2-yl)-1-methylcyclohexan-1-ol], the IC50 in assay [1] is 227 nM; in assay [2] it was 7310 nM.

As for `Cc1c(-c2ncco2)nc(N)n2nc([C@@H]3CCCN(c4cnn(CC(C)(C)O)c4)C3)nc12` [Example 3.7, (R)-1-(4-(3-(5-amino-8-methyl-7-(oxazol-2-yl)-[1,2,4]triazolo[1,5-c]pyrimidin-2-yl)piperidin-1-yl)-1H-pyrazol-1-yl)-2-methylpropan-2-ol], the IC50 was 4.7 nM in assay [1] and 224 nM in assay [2].

`Cc1c(-c2cc(F)ccc2F)nc(N)c2nc([C@@H]3CCCN(c4cnn(C)c4)C3)nn12` (single isomer, unassigned) [Example 2.6]: the IC50 in assay [1] was 218 nM; in assay [2], 436 nM.

For `Cc1c(-c2cccc(F)c2)nc(N)c2nc(C3CCC(C)(O)C3)nn12` (single isomer, unassigned) [Example 8.8, (1R,3S and 1S,3R) or (1R,3R and 1S,3S)-3-(8-amino-6-(3-fluorophenyl)-5-methyl-[1,2,4]triazolo[1,5-a]pyrazin-2-yl)-1-methylcyclopentan-1-ol], the IC50 was 70.5 nM in assay [1] and 350 nM in assay [2].

For the molecule `Cc1c(-c2ncco2)nc(N)c2nc(C3CCCC(C)(O)C3)nn12` (single isomer, unassigned) [Example 8.4, (1R,3S and 1S,3R) or (1R,3R and 1S,3S)-3-(8-amino-5-methyl-6-(oxazol-2-yl)-[1,2,4]triazolo[1,5-a]pyrazin-2-yl)-1-methylcyclohexan-1-ol], the IC50 in assay [1] is 6.7 nM; in assay [2] it was 411 nM.

Turning to `CCn1cc(N2C[C@H](c3nc4c(C)c(-c5ncco5)nc(N)n4n3)CC[C@@H]2C)cn1` [Example 2.14, 2-((3R,6S)-1-(1-ethyl-1H-pyrazol-4-yl)-6-methylpiperidin-3-yl)-8-methyl-7-(oxazol-2-yl)-[1,2,4]triazolo[1,5-c]pyrimidin-5-amine], the half-inhibitory concentration (IC50) in assay [1] was determined as 1.2 nM; in assay [2] it was 17.6 nM.

For `Cc1c(-c2cccc(F)c2)nc(N)c2nc(C3CCC(C)(O)C3)nn12` (single isomer, unassigned) [Example 8.9, (1R,3S and 1S,3R) or (1R,3R and 1S,3S)-3-(8-amino-6-(3-fluorophenyl)-5-methyl-[1,2,4]triazolo[1,5-a]pyrazin-2-yl)-1-methylcyclopentan-1-ol], the IC50 was 357 nM in assay [1] and 2090 nM in assay [2].

Consider `Cc1c(-c2ncco2)nc(N)c2nc(C3CCCC(C)(O)C3)nn12` (single isomer, unassigned) [Example 8.5, (1R,3S and 1S,3R) or (1R,3R and 1S,3S)-(8-amino-5-methyl-6-(oxazol-2-yl)-[1,2,4]triazolo[1,5-a]pyrazin-2-yl)-1-methylcyclohexan-1-ol], for which the IC50 was determined as 265 nM in assay [1] and 9140 nM in assay [2].

Consider `Cc1c(-c2ncco2)nc(N)c2nc(C3(c4ncccc4F)CC3)nn12` [Example 2.7, 2-(1-(3-fluoropyridin-2-yl)cyclopropyl)-5-methyl-6-(oxazol-2-yl)-[1,2,4]triazolo[1,5-a]pyrazin-8-amine], for which the IC50 in assay [1] stood at 56.4 nM; in assay [2] it was 2910 nM.

Regarding `Cc1c(-c2cccc(F)c2)nc(N)n2nc([C@@H]3CCCNC3)nc12` [Example 2.4, (R)-7-(3-fluorophenyl)-8-methyl-2-(piperidin-3-yl)-[1,2,4]triazolo[1,5-c]pyrimidin-5-amine], the IC50 is 57.7 nM in assay [1] and 873 nM in assay [2].

As for `Cc1c(-c2ncco2)nc(N)c2nc([C@@H]3CCCN(c4cnn(C)c4)C3)nn12` (single isomer, unassigned) [Example 2.5-1], the IC50 in assay [1] was 14.8 nM; in assay [2], 770 nM.

Regarding `Cc1c(-c2ncco2)nc(N)n2nc([C@@H]3CCCN(c4cnn(CC5(O)CCC5)c4)C3)nc12` [Example 3.8, (R)-1-((4-(3-(5-amino-8-methyl-7-(oxazol-2-yl)-[1,2,4]triazolo[1,5-c]pyrimidin-2-yl)piperidin-1-yl)-1H-pyrazol-1-yl)methyl)cyclobutan-1-ol], the IC50 in assay [1] came to 2.7 nM; in assay [2], 191 nM.

Regarding `Cc1c(-c2cccc(F)c2)nc(N)n2nc([C@@H]3CCCN(c4cnn(CC(C)(C)O)c4)C3)nc12` [Example 3.11, (R)-1-(4-(3-(5-amino-7-(3-fluorophenyl)-8-methyl-[1,2,4]triazolo[1,5-c]pyrimidin-2-yl)piperidin-1-yl)-1H-pyrazol-1-yl)-2-methylpropan-2-ol], the IC50 in assay [1] was found to be 29.2 nM; in assay [2], 542 nM.
